Each structure is given as a SMILES string.

The subject of one assay is HS DNA. The assay is described as follows: DNA binding by fluorescence (emission) titration. Further details: species or system herring. As to conditions: for binding constant / binding site size: emission titrations; for n′ (binding site size): titrating concentrated HS DNA into 5 μM solutions of ruthenium complex, direct fitting. An excerpt:
VNK-754 is a structural analog of [Ru(phen)2dpq]^2+, a complex that intercalates the dpq (dpq = dipyrido[3,2-f:2′,3′-h]quinoxaline) ligand from the minor groove ([Greguric et al., 1997]). The dpq ligand presents a sufficiently large planar surface to allow classical intercalation, and it might be expected that extending the surface with substituents would enhance such binding. However, while this is observed with the addition of aromatic rings, as in the case of [Ru(phen)2dppz]^2+, this may not be true for the addition of a saturated ring that distorts the planarity of the extended ring system (Figure 6). Studies were thus undertaken to establish the binding modes of POW-12A and VNK-572. All complexes bound strongly to DNA, and binding constants and binding site sizes were determined from emission titrations to be 1.91 × 10^6 M^–1 and 0.38 Ru/base for POW-12A, and 1.46 × 10^6 M^–1 and 0.24 Ru/base for VNK-572 (Table 3). […] The smallest binding site size a pure intercalator can have is four bases. The binding site size of POW-12A is smaller than four bases; this is not consistent with binding via pure intercalation.
PBS buffer was prepared with NaCl (137 mM), KCl (2.70 mM), Na2HPO4 (10.1 mM), and KH2PO4 (1.77 mM) in nanopure water. Using HCl, the pH was adjusted to 7.40. PBS buffer was used for all photophysical experiments. For linear dichroism experiments, a PBS buffer without potassium was used. Solutions of open-circle and supercoiled φX174 DNA were obtained from New England Biolabs. Sodium salts of high-molecular-weight herring sperm (HS-DNA) and calf thymus (CT-DNA) from Sigma were dissolved in PBS buffer, and concentrations were determined spectrophotometrically using the extinction coefficient ε260 nm = 6600 M^−1 cm^−1 for nucleobase concentration. The alternating polynucleotide polydeoxyadenylic-thymidylic acid ([poly(dA-dT)]2) and polydeoxyguanylic-cytidylic acid ([poly(dG-dC)]2) from NUNABIO ([Whitfield et al., 2015]) were dissolved in PBS buffer, and their concentrations were determined using the extinction coefficients ε262 nm = 6700 M^−1 cm^−1 and ε254 nm = 8400 M^−1 cm^−1, respectively. Direct fitting to raw data from fluorescence titration experiments (titrating concentrated HS DNA into 5 μM solutions of ruthenium complex) was used to give the binding constant (KB) and binding site size (n′). The following equation is derived from the Scatchard equation: ∝^2∙KB/PD−KB/PD+1/PDDt+KB∙n^′+KB∙n^′ = 0, where Db/Dt=I−I0/I∞−I0 , PD is the phosphate: dye ratio, KB is the binding constant (M^−1), and n′ is the binding site size (bases per compound). The equation is in the form of a quadratic equation, where a = KB[Dt]/PD, b = −(KB/PD+1/PD[Dt ] +KB∙n′), and c = KBn′. The positive solution to this quadratic equation gives values for α, from which theoretical intensities at each PD are calculated. The least squares regression method was used, minimizing the squared residuals of the theoretical and experimental intensities and floating the values of KB, I0, I∞, and n′.

In assay [1] the test system is RF I φX174 supercoiled circular DNA. The assay can be described thus: supercoiled DNA unwinding by atomic force microscopy. It is filed as binding. As to conditions: AFM; P/D = 14 for POW-12A and VNK-572, P/D = 5 for VNK-754. Here is the method:
FIGURE 7 AFM height images RF I φX174 on a magnesium-soaked mica surface over an area of 2 µm. Samples with the ruthenium complex had solution mixing ratios of P/D = 14 for POW-12A and VNK-572; and of P/D = 5 VNK-754.
Samples for atomic force microscopy (AFM) were prepared on mica crystals cut into squares of approximately 1 cm^2. These squares were stuck with double-sided tape to a 15-mm diameter metal disc. Before sample preparation, Cellotape was used to remove the top layer of the mica crystal, giving a freshly cleaved surface layer on which the sample is to be deposited. Mica was soaked in a 0.1 M solution of MgCl2 for 5 min and blown dry, and Mg^2+ was used to help DNA (negatively charged) adhere to the negatively charged surface of the mica. For solutions containing DNA and POW-12A or VNK-572, a P/D value of 14 was used. For the solution containing DNA and VNK-754, a P/D value of 5 was used. Then, 2 μL of the solution was pipetted onto the mica surface and left for 10 min until the solvent had evaporated, leaving the DNA adhered to the surface. To remove excess salt, each sample was washed three times with 10 µL nanopure water, drying with nitrogen after each wash. AFM was conducted using a Bruker Multi-mode 2 atomic force microscope operated with a NanoScope V controller. ScanAsyst-AIR AFM tips were purchased from Bruker. Scans were run in tapping mode using ScanAsyst, measuring height, peak force error, and phase. The spring constant was adjusted to the spring constant of the tip, which is 0.4 N m^−1 for ScanAsyst-AIR tips; feedback parameters were set automatically by ScanAsyst Auto. Scans were run over 2 μm^2 areas with 512 lines. Images were prepared using NanoScope analysis software. Raw data were processed using first-order flattening and third-order plane fitting. If the background required smoothening due to large molecules on the surface, first-order flattening with a threshold of Z < 0.05 nm was used to improve the appearance of the background. […]

As to `F[P-](F)(F)(F)(F)F.F[P-](F)(F)(F)(F)F.[Ru+2].c1cnc2c(c1)c1ncc3c(c1c1cccnc12)CCC3.c1cnc2c(c1)ccc1cccnc12.c1cnc2c(c1)ccc1cccnc12` [POW-12A], in the assay with HS DNA, the binding constant was 1.91 × 10^6 M^–1, the binding site size came out at 0.38 Ru/base and the “n′ (binding site size)” value is given as 2.63 bases per compound. Also, the “unwinding of supercoiled circular DNA” value in assay [1] was “unwound”.
Regarding `F[P-](F)(F)(F)(F)F.F[P-](F)(F)(F)(F)F.[Ru+2].c1cnc2c(c1)c1ncc3c(c1c1cccnc12)CCCC3.c1cnc2c(c1)ccc1cccnc12.c1cnc2c(c1)ccc1cccnc12` [VNK-572], in the assay with HS DNA, the binding constant is 1.46 × 10^6 M^–1, the binding site size was found to be 0.24 Ru/base and the “n′ (binding site size)” value was 4.16 bases per compound. Moreover, in assay [1], the “unwinding of supercoiled circular DNA” value is on record as “unwound”.

Source of the values: paper PMC10619691, “Effect of cyclic substituents on the anti-cancer activity and DNA interaction of ruthenium(II) bis-phenanthroline dipyridoquinoline” (Frontiers in Molecular Biosciences, 2023).
